Source: US20260083750A1, “SMALL MOLECULE INHIBITORS OF KRAS PROTEINS” (MERCK SHARP & DOHME LLC, priority 2022, published 2026)

Columns and labels:
[1] = molecular target: T1, KRAS G12D (amino acids 1-169) (Homo sapiens, UniProt P01116, G12D); test: SOS-catalyzed nucleotide exchange assay (Procedure B, BODIPY FL GDP displacement); type: biochemical; settings: Procedure B (Example Nos. 18, 21, 23, 33-34); 1 hour incubation, SOS1 + GMPPNP; read-out: KRAS G12D GNE IC50
T1 construct: made in house; host or cells: E. coli
T1 sequence (P01116 with tags, fused parts or gaps isoform P01116-2 G12D): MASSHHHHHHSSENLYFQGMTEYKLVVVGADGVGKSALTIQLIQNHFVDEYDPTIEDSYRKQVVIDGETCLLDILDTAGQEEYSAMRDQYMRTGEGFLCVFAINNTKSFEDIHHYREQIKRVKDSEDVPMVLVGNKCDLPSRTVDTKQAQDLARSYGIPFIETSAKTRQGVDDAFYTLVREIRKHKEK
Method: (§1) Procedure for SOS-Catalyzed Nucleotide Exchange Assay for KRAS-G12C/D/V (Procedure B)
(§2) Recombinant KRAS G12C (amino acids 1-169, SEQ ID NO:8), KRAS G12D (amino acids 1-169, SEQ ID NO:9), KRAS G12V (amino acids 1-169, SEQ ID NO:10) and SOS1 (amino acids 564-1049, SEQ ID NO:11) proteins were expressed in E. coli and purified by affinity chromatography. To prepare each BODIPY™ FL GDP-bound KRAS mutant protein, 50 μM KRAS mutant proteins were incubated with 0.5 mM BODIPY™ FL GDP (Invitrogen, G22360) in a loading buffer (20 mM Tris-HCl pH 7.5, 50 mM NaCl, 1 mM DTT and 2.5 mM EDTA) for 1 hour on ice. After the incubation, MgCl2 was added to a final concentration of 10 mM, followed by an incubation at room temperature for 30 minutes. The mixtures were allowed to pass through a NAP-5 column to remove free nucleotides and purified BODIPY™ FL GDP-bound KRAS G12C, G12D and G12V proteins were used for compound evaluation.
(§3) The inhibitory activity of compounds on recombinant KRAS mutants is measured by the displacement of the bound BODIPY™ GDP. Specifically, 2.5 nM of each BODIPY™ FL GDP-bound KRAS mutant complex was incubated with various concentrations of compound in a reaction buffer (20 mM Tris-HCl pH 7.5, 100 mM NaCl, 1 mM MgCl2, 2 mM DTT, 0.1% Tween 20) at 25° C. for 1 hour. After the incubation, recombinant SOS1 and GMPPNP (Jena Bioscience GmbH, NU-401) were added and incubated at room temperature for 30 minutes to proceed SOS1-dependent GDP-GTP exchange reaction on KRAS mutants. Displacement of BODIPY™ FL GDP by Guanosine-5′-[(β,γ)-imido]triphosphate, Tetralithium salt (GMPPNP) was measured by calculating the ratio of fluorescence intensities of BODIPY™ FL before and after the exchange reaction. […] Dose response curves were analyzed using a 4-parameter logistic model to calculate IC50 values.
(§4) For Example Nos. 1-17, 19-20, 22, 24-32, and 35-53 nucleotide exchange assays for KRAS G12D, G12C, G12V, and G13D were performed according to Procedure A. For Example Nos. 18, 21, 23, and 33-34, nucleotide exchange assays for KRAS G12D, G12C, and G12V were performed according to Procedure B.

[2] = molecular target: T2, KRAS G12C (amino acids 1-169) (Homo sapiens, UniProt P01116, G12C); test: as above; type: biochemical; settings: Procedure B (Example Nos. 18, 21, 23, 33-34); 1 hour incubation, SOS1 + GMPPNP; read-out: KRAS G12C GNE IC50
T2 construct: made in house; host or cells: E. coli
T2 sequence (P01116 with tags, fused parts or gaps isoform P01116-2 G12C): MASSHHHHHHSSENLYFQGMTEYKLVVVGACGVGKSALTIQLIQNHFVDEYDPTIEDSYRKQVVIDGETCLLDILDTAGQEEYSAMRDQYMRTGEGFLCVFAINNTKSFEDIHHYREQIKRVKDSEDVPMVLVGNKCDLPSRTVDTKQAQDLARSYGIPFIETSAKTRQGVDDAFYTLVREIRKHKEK
Method: as §1, §2, §3, §4

[3] = molecular target: T3, KRAS G12V (amino acids 1-169) (Homo sapiens, UniProt P01116, G12V); test: as above; type: biochemical; settings: Procedure B (Example Nos. 18, 21, 23, 33-34); 1 hour incubation, SOS1 + GMPPNP; read-out: KRAS G12V GNE IC50
T3 construct: made in house; host or cells: E. coli
T3 sequence (P01116 with tags, fused parts or gaps isoform P01116-2 G12V): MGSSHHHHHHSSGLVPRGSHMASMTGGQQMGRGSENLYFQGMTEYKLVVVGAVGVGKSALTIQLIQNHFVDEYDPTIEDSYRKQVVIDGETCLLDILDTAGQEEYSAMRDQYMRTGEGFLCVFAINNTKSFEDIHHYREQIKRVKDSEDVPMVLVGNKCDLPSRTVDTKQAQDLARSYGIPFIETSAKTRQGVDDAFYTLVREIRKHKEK
Method: as §1, §2, §3, §4

[4] = molecular target: T4, KRAS-G12C (C51S/C80L/C118S) (Homo sapiens, UniProt P01116, C118S/C51S/C80L/G12C); test: SOS-catalyzed nucleotide exchange assay (Procedure A, TR-FRET); type: biochemical; settings: 60 min preincubation, SOS + GTP, read-out: KRAS G12C GNE IC50
T4 construct: N-terminal biotin-acceptor peptide […]
T4 sequence (P01116 with tags, fused parts or gaps isoform P01116-2 G12C/C51S/C80L/C118S): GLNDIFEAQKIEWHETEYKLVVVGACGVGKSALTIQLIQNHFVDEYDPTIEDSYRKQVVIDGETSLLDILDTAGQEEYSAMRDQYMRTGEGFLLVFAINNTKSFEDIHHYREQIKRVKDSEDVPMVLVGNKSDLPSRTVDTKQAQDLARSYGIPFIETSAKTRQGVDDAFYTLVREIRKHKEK
Method in brief: (§5)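 Preformed biotinylated RAS–Bodipy-GDP/Tb-streptavidin complex preincubated with compound 60 min at room temperature, then SOS plus GTP (3 mM final) added. Exchange times: G13D 30 min, G12C/D 60 min, G12V 90 min. Final RAS/SOS: G12C 3 nM/40 nM, G12D 1 nM/40 nM, G12V 1.25 nM/160 nM, G13D 1.25 nM/0 nM. TR-FRET 520/495 ratio, four-parameter fit.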

KRAS-G13D = molecular target: T5, KRAS-G13D (Homo sapiens, UniProt P01116, G13D); test: as above; type: biochemical; settings: 60 min preincubation, GTP, read-out: KRAS G13D GNE IC50
T5 construct: N-terminal biotin-acceptor peptide […]
T5 sequence (P01116 with tags, fused parts or gaps isoform P01116-2 G13D): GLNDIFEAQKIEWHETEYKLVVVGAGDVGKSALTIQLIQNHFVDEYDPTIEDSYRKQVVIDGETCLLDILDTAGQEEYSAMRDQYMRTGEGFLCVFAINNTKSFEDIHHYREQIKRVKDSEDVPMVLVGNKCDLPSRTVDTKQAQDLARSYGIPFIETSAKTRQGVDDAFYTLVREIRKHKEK
Method in brief: as §5

KRAS-G12V = molecular target: T6, KRAS-G12V (Homo sapiens, UniProt P01116, G12V); test: as above; type: biochemical; settings: 60 min preincubation, SOS + GTP, read-out: KRAS G12V GNE IC50
T6 construct: N-terminal biotin-acceptor peptide […]
T6 sequence (P01116 with tags, fused parts or gaps isoform P01116-2 G12V): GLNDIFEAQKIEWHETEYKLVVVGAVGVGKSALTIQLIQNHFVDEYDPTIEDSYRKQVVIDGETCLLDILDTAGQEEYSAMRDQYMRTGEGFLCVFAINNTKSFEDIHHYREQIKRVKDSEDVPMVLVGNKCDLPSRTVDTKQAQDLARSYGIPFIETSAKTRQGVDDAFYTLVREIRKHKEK
Method in brief: as §5

KRAS-G12D = molecular target: T7, KRAS-G12D (Homo sapiens, UniProt P01116, G12D); test: as above; type: biochemical; settings: 60 min preincubation, SOS + GTP, read-out: KRAS G12D GNE IC50
T7 construct: N-terminal biotin-acceptor peptide […]
T7 sequence (P01116 with tags, fused parts or gaps isoform P01116-2 G12D): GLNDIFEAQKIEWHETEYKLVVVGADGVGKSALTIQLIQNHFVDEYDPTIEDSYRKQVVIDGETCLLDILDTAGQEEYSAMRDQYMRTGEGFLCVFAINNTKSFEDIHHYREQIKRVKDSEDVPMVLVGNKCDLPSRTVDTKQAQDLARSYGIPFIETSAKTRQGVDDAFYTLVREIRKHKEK
Method in brief: as §5

[5] = tested on: PANC08.13 cells (homozygous KRAS-G12D activating mutation); test: Cellular phospho-ERK assay in G12D cell line; type: cell-based; settings: Homo sapiens, PANC-08-13, 2 hours compound incubation, ratio of p-ERK vs. total ERK, read-out: PANC 0813 pERK IC50
Method in brief: (§6)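 Cells (10,000-15,000/well) were seeded overnight, then treated for 2 h at 37 °C with a 10-point 1:3 titration from 30 μM final. Lysates were assayed by AlphaLISA SureFire Ultra multiplex, with the p-ERK/total-ERK ratio as read-out; IC50 came from a 4-parameter logistic fit.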

HRAS = HRAS (Homo sapiens, UniProt P01112); test: SOS-catalyzed nucleotide exchange assay (Procedure A, TR-FRET); type: biochemical; settings: 60 min preincubation, SOS + GTP, read-out: HRAS GNE IC50
HRAS, sequence (P01112 with tags, fused parts or gaps): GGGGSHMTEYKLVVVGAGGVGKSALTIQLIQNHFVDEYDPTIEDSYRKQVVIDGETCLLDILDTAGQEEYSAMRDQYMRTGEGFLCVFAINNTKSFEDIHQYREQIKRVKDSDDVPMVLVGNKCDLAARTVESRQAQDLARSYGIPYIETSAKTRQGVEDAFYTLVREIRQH
Method in brief: (§7)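 Biotinylated WT-sequence HRAS or NRAS (1.25 nM final) loaded with Bodipy-GDP plus Tb-streptavidin, preincubated 60 min with compound (10-point, 3-fold). Exchange started with human SOS (40 nM) and 3 mM GTP, 60 min at room temperature, pH 7.5 Mg buffer. TR-FRET 520/495 ratio normalised to DMSO and saturating inhibitor, four-parameter fit.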

NRAS = NRAS (Homo sapiens, UniProt P01111); test: as above; type: biochemical; settings: 60 min preincubation, SOS + GTP, read-out: NRAS GNE IC50
NRAS, sequence (P01111 with tags, fused parts or gaps): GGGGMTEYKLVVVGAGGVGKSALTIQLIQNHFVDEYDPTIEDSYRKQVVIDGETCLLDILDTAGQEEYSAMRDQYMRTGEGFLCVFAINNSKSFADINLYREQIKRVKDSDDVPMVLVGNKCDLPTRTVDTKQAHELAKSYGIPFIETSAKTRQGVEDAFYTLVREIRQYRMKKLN
Method in brief: as §7

[6] = tested on: SW620 cells (homozygous KRAS-G12V activating mutation); test: Cellular phospho-ERK assay in G12V cell line; type: cell-based; settings: Homo sapiens, SW-620, 2 hours compound incubation, ratio of p-ERK vs. total ERK, read-out: SW620 pERK IC50
Method in brief: as §6

| IC50 [1] [nM] | IC50 [2] [nM] | IC50 [3] [nM] | SMILES | IC50 [4] [nM] | IC50 (KRAS-G13D) [nM] | IC50 (KRAS-G12V) [nM] | IC50 (KRAS-G12D) [nM] | IC50 [5] [nM] | IC50 (HRAS) [nM] | IC50 (NRAS) [nM] | IC50 [6] [nM] |
| --- | --- | --- | --- | --- | --- | --- | --- | --- | --- | --- | --- |
| 4880 | 1020 | 2230 | N#Cc1c(N)sc2c(F)ccc(-c3c(Cl)cc4c(N5CCCOCC5)nc(OC[C@]5(CO)CC5(F)F)nc4c3F)c12 (single isomer, unassigned) [Ex. 33] | – | – | – | – | – | – | – | – |
| 3.43 | 1.8 | 1.67 | N#Cc1c(N)sc2c(F)ccc(-c3c(C(F)(F)F)cc4c(N5CCCOCC5)nc(OC[C@@]56CCCN5C[C@H](F)C6)nc4c3F)c12 [Ex. 34, 2-amino-7-fluoro-4-(8-fluoro-2-(((2R,7aS)-2-fluorotetrahydro-1H-pyrrolizin-7a(5H)-yl)methoxy)-4-(1,4-oxazepan-4-yl)-6-(trifluoromethyl)quinazolin-7-yl)benzo[b]thiophene-3-carbonitrile] | – | – | – | – | – | – | – | – |
| 136 | 20.8 | 63.6 | C[C@H]1CCOCCN1c1nc(OC[C@@]23CCCN2C[C@H](F)C3)nc2c(F)c(-c3ccc(F)c4sc(N)c(C#N)c34)ncc12 [compound 21, 2-amino-7-fluoro-4-(8-fluoro-2-(((2R,7aS)-2-fluorotetrahydro-1H-pyrrolizin-7a(5H)-yl)methoxy)-4-((S)-5-methyl-1,4-oxazepan-4-yl)pyrido[4,3-d]pyrimidin-7-yl)benzo[b]thiophene-3-carbonitrile] | – | – | – | – | – | – | – | – |

Second part, the compound before the results:

| SMILES | IC50 [1] [nM] | IC50 [2] [nM] | IC50 [3] [nM] | IC50 [4] [nM] | IC50 (KRAS-G13D) [nM] | IC50 (KRAS-G12V) [nM] | IC50 (KRAS-G12D) [nM] | IC50 [5] [nM] | IC50 (HRAS) [nM] | IC50 (NRAS) [nM] | IC50 [6] [nM] |
| --- | --- | --- | --- | --- | --- | --- | --- | --- | --- | --- | --- |
| N#Cc1c(N)sc2c(F)ccc(-c3c(Cl)cc4c(N5CCCOCC5)nc(OC[C@@]56CCCN5C[C@H](F)C6)nc4c3F)c12 (single isomer, unassigned) [Ex. 18] | 5.34 | 2.81 | 2.91 | – | – | – | – | – | – | – | – |
| N#Cc1c(N)sc2c(F)cc(F)c(-c3ncc4c(N5CCCOCC5)nc(OC[C@@]56CCCN5C[C@H](F)C6)nc4c3F)c12 [Ex. 23, 2-amino-5,7-difluoro-4-(8-fluoro-2-(((2R,7aS)-2-fluorotetrahydro-1H-pyrrolizin-7a(5H)-yl)methoxy)-4-(1,4-oxazepan-4-yl)pyrido[4,3-d]pyrimidin-7-yl)benzo[b]thiophene-3-carbonitrile] | 140 | 33.4 | 76.9 | – | – | – | – | – | – | – | – |
| Cc1cc(N)nc(-c2c(Cl)cc3c(N4CCCOCC4)nc(OC[C@@]45CCCN4C[C@H](F)C5)nc3c2F)c1C(F)(F)F [compound 40, 6-(6-chloro-8-fluoro-2-(((2R,7aS)-2-fluorotetrahydro-1H-pyrrolizin-7a(5H)-yl)methoxy)-4-(1,4-oxazepan-4-yl)quinazolin-7-yl)-4-methyl-5-(trifluoromethyl)pyridin-2-amine] | – | – | – | 83.3 | 204 | 78.2 | 351 | 807 | > 11100 | > 11100 | 628 |
| Cc1cc(N)nc(-c2c(Cl)cc3c(N4CCCOCCC4)nc(OC[C@@]45CCCN4C[C@H](F)C5)nc3c2F)c1C(F)(F)F [compound 41, 6-(6-chloro-8-fluoro-2-(((2R,7aS)-2-fluorotetrahydro-1H-pyrrolizin-7a(5H)-yl)methoxy)-4-(1,5-oxazocan-5-yl)quinazolin-7-yl)-4-methyl-5-(trifluoromethyl)pyridin-2-amine] | – | – | – | 56.5 | 75.5 | 46.4 | 125 | 348 | > 11100 | > 11100 | 512 |
